Data taken from patent publication US20140351961A1, “COMPOSITIONS AND METHODS FOR TREATMENT OF METASTATIC CANCER” (priority 2011, published 2014).
Residues, ends and D or L forms follow the SMILES beside them. *: point of attachment. Cbz = O=C(OCc1ccccc1)*

Key:
[1] = system: AsPC1 cells; assay: MTS cytotoxicity assay, AsPC1 cells pre-treated with control or CH101; assay type: cell-based; conditions: Homo sapiens, AsPC1, highly metastatic pancreatic cell, 48 h control or CH101 pre-treatment, then 72 h drug
Method: FIG. 8A-B. Combining CH101 with oxaliplatm synergistieally functions to reduce the IC50 in the highly agreesive, highly metastatic pancreatic cell, AsPC1, AsPC1 cells (10^6) were plated in 96-well plates and either pre-treated with control (top panel) or CH101 (bottom panel) for 48 hrs in a 37 degree C incubator. AsPC1 cells were then treated with various doses of oxaliplatm (A) or irlootecan (B) and further incubated for 72 h. Cytotoxicity was measured using the classical MTS assay.

[2] = system: IFN-γ; assay: In vitro cross-presentation assay (IFN-γ release by B3Z cells); assay type: cell-based, mouse; conditions: Hsp25-siRNA- and control-siRNA-treated BMDC; 10 μM
[3] = system: Panc-1 cells; assay: MTS cytotoxicity assay, Panc-1 cells pre-treated with control or CH101; assay type: cell-based; conditions: Panc-1, weakly metastatic pancreatic cell, 48 h control or CH101 pre-treatment, then 72 h drug
Method: FIG. 7. Combining CH101 with oxaliplatin synergistically functions to reduce the IC50 in the weakly metastatic pancreatic cell Panc-1. Panc-1 cells (10^6) were plated in 96-well plates and either pre-treated with control (top panel) or CH101 (bottom panel) for 48 h in a 37 degree C incubator. Panc-1 cells were then treated with various doses of oxaliplatm and further incubated for 72 hours. Cytotoxicity was measured using the classical MTS assay.

[4] = system: MDA-MB-231, AsPC1, MCF7, Panc-1; assay: CH101 against highly metastatic versus non- or weakly metastatic cancers; assay type: cell-based; conditions: MDA-MB-231 and AsPC1 versus MCF7 and Panc-1

## CCc1c2c(nc3ccc(OC(=O)N4CCC(N5CCCCC5)CC4)cc13)-c1cc3c(c(=O)n1C2)COC(=O)[C@]3(O)CC [irinotecan]
[1]
  IC50: 36.8 µM

## CC(C)C[C@@H](C=O)NC(=O)[C@H](CC(C)C)NC(=O)[C@H](CC(C)C)NC(=O)OCc1ccccc1 [MG-132] (Cbz-Leu-Leu-Leu-aldehyde)
[2]
  IFN-γ released by B3Z cells after proteasome inhibitor pre-treatment: significantly reduced the concentration of released IFN-γ

## O=C1[O][Pt]2([NH][C@@H]3CCCC[C@H]3[NH]2)[O]C1=O [oxaliplatin]
[3]
  IC50: 23 µM

B1: CH101: cocktail of two dsRNA molecules, dsRNA SEQ ID NO:8/SEQ ID NO:9 and dsRNA SEQ ID NO:10/SEQ ID NO:11, blocking Hsp27 (nucleic acid)
chain 1: AAGGACGAGCATGGCTACATC
chain 2: GATGTAGCCATGCTCGTCCTT
chain 3: CACAGCCGCCTCTTCGATCAA
chain 4: TTGATCGAAGAGGCGGCTGTG
modifications: two duplexes cocktail, further chemistry not given here
[4]
  relative effectiveness by metastatic type of cancer: more effective against highly metastatic cancers
